Results taken from ChEMBL document CHEMBL1201862, “PubChem BioAssay data set” (2004).
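Grown in 96-well plates, cells were treated for 48 hours with each compound at five concentrations. Insufficient inhibition: endpoint recorded as highest concentration tested. GI50 marks 50% less growth.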 Active and inactive are the calls of the source. Cut-off read from the data, not from the text of the source: active = GI50 up to about 1.1 µM and inactive = higher. Non-standard residues stand in square brackets, D forms with d. Residues, ends and D or L forms follow the SMILES beside them.

Experiments:
Experiment in all cases: growth of human tumour cells (NCI), 48 h
OVCAR-5 = tested on: OVCAR-5
M19-MEL = tested on: M19-MEL
DMS-273 = tested on: DMS-273
OVCAR-4 = tested on: OVCAR-4
HT-29 = tested on: HT-29
SR = tested on: SR
HL-60 = tested on: HL-60
SK-MEL-5 = tested on: SK-MEL-5
SN12C = tested on: SN12C
RXF 393 = tested on: RXF 393
SNB-19 = tested on: SNB-19
K562 = tested on: K562
A549 = tested on: A549
KM12 = tested on: KM12
SK-MEL-28 = tested on: SK-MEL-28
NCI/ADR-RES = tested on: NCI/ADR-RES
MDA-N = tested on: MDA-N
DU-145 = tested on: DU-145
Hs-578T = tested on: Hs-578T
T47D = tested on: T47D

Measured: GI50

CC(C)=CCCC(C)[C@H]1CC(O)C2(C)C3=CCC4C(C)(C)[C@@H](O)CC[C@]4(C)C3=CC[C@]12C (some centres undefined)
inactive: OVCAR-5 25 µM | M19-MEL 4.51 µM | DMS-273 1.57 µM | OVCAR-4 2.31 µM | HT-29 2.72 µM | SR 11.6 µM | HL-60 3.69 µM | SK-MEL-5 14.3 µM | SN12C 3.14 µM | RXF 393 2.92 µM | SNB-19 12.1 µM | K562 1.59 µM | A549 2.66 µM | KM12 4.36 µM

COc1ccc(/C=N/n2cnc3c(c2=O)S/C(=C2/SC(=S)N(c4ccc(C)cc4)C2=O)N3c2ccccc2)cc1
inactive: OVCAR-5 > 100 µM | M19-MEL > 100 µM | DMS-273 38.9 µM | OVCAR-4 17.7 µM | SK-MEL-28 > 100 µM | HT-29 > 100 µM | SR 31.6 µM | HL-60 58.5 µM | SN12C > 100 µM | RXF 393 17.3 µM | SNB-19 28.4 µM | K562 > 10 µM | A549 41.3 µM | KM12 > 100 µM

Cc1noc(/N=C2\C=C(Nc3onc(C)c3C)C(=O)c3ccccc32)c1C
inactive: OVCAR-5 > 100 µM | M19-MEL 3.98 µM | DMS-273 > 100 µM | OVCAR-4 > 100 µM | SK-MEL-28 > 100 µM | HT-29 > 100 µM | SR 24.3 µM | HL-60 18.7 µM | SK-MEL-5 15.6 µM | SN12C > 100 µM | RXF 393 > 100 µM | SNB-19 > 100 µM | K562 8.81 µM | A549 87.1 µM | KM12 > 100 µM

COC(=O)c1s/c(=N\C(=S)N(C)C)n(-c2ccc(Cl)cc2)c1C(=O)OC
inactive: OVCAR-5 > 100 µM | M19-MEL > 100 µM | DMS-273 > 100 µM | OVCAR-4 56.4 µM | SK-MEL-28 > 100 µM | HT-29 > 100 µM | SR > 100 µM | HL-60 > 100 µM | SK-MEL-5 > 10 µM | SN12C > 100 µM | RXF 393 78.9 µM | SNB-19 > 100 µM | K562 > 100 µM | A549 > 100 µM | KM12 > 100 µM

CC1NC(=O)CC(c2ccccc2)N(N=O)C1c1ccccc1 (centres undefined)
inactive: OVCAR-5 > 100 µM | M19-MEL 55.7 µM | DMS-273 26 µM | OVCAR-4 19.9 µM | SK-MEL-28 40.8 µM | HT-29 29.7 µM | NCI/ADR-RES 25.2 µM | HL-60 24.8 µM | SK-MEL-5 28.6 µM | SN12C 49.5 µM | RXF 393 22.4 µM | SNB-19 40 µM | K562 28 µM | A549 53.2 µM | KM12 56.1 µM

CCOC(=O)NC1CC2CCC1(OC)C=C2C (centres undefined)
inactive: OVCAR-5 > 100 µM | M19-MEL > 100 µM | DMS-273 > 100 µM | OVCAR-4 > 100 µM | SK-MEL-28 > 100 µM | HT-29 > 100 µM | SR > 100 µM | HL-60 > 100 µM | SK-MEL-5 > 100 µM | SN12C > 100 µM | RXF 393 > 100 µM | SNB-19 > 100 µM | K562 > 100 µM | A549 > 100 µM | KM12 > 100 µM

CC(C)C[C@H](NC(=O)[C@H](CC(C)C)NC(=O)[C@@H](Cc1c[nH]c2ccccc12)NC(=O)[C@H](Cc1ccccc1)NC(=O)[C@@H](Cc1c[nH]c2ccccc12)NC(=O)[C@H](CCC(N)=O)NC(=O)[C@H](CCC(N)=O)NC(=O)[C@H]1CCCN1C(=O)[C@@H](N)CCCCN)C(N)=O (H-K[dP]QQ[dW]F[dW]LL-NH2)
inactive: OVCAR-5 > 100 µM | M19-MEL > 100 µM | DMS-273 > 100 µM | OVCAR-4 > 100 µM | SK-MEL-28 > 100 µM | HT-29 > 100 µM | NCI/ADR-RES > 100 µM | HL-60 > 100 µM | SK-MEL-5 > 100 µM | SN12C > 100 µM | RXF 393 > 100 µM | SNB-19 > 100 µM | K562 > 100 µM | A549 > 100 µM | KM12 > 100 µM

CC(=O)OCC1OC(n2cc([N+](=O)[O-])c(=O)[nH]c2=O)C(OC(C)=O)C(OC(C)=O)C1OC(C)=O (centres undefined)
inactive: OVCAR-5 > 100 µM | M19-MEL > 100 µM | DMS-273 > 100 µM | OVCAR-4 > 100 µM | SK-MEL-28 > 100 µM | HT-29 > 100 µM | SR > 100 µM | HL-60 > 100 µM | SK-MEL-5 > 100 µM | SN12C > 100 µM | RXF 393 76 µM | SNB-19 > 100 µM | K562 > 100 µM | A549 > 100 µM | KM12 > 100 µM

CC1=CC(C)(C)N=C2SC(c3ccc(N)cc3)=NN12
inactive: OVCAR-5 49.7 µM | M19-MEL 63.1 µM | DMS-273 > 42.9 µM | OVCAR-4 > 93.8 µM | SK-MEL-28 > 100 µM | HT-29 32.1 µM | SR 46.9 µM | HL-60 18.1 µM | SK-MEL-5 70.3 µM | SN12C > 95.9 µM | RXF 393 > 100 µM | SNB-19 > 87.3 µM | K562 32.6 µM | A549 51.9 µM | KM12 > 70.6 µM

O=C1C(c2ccc([N+](=O)[O-])cc2)=C(Cl)C(=O)c2c(O)cccc21
inactive: OVCAR-5 40.7 µM | M19-MEL 18.2 µM | DMS-273 28 µM | OVCAR-4 17.3 µM | MDA-N 20.2 µM | SK-MEL-28 18.9 µM | HT-29 21 µM | SR > 100 µM | NCI/ADR-RES 28.4 µM | HL-60 4.12 µM | DU-145 20.7 µM | SK-MEL-5 23.4 µM | SN12C 22.3 µM | RXF 393 14.7 µM | SNB-19 22.5 µM | Hs-578T 26.8 µM | K562 11.4 µM | T47D 20.9 µM | A549 97.7 µM | KM12 25.6 µM

CC(=O)N/C=C/c1cc(O)ccc1O
inactive: OVCAR-5 29.4 µM | M19-MEL 31.5 µM | DMS-273 > 67.5 µM | OVCAR-4 32.6 µM | SK-MEL-28 32.8 µM | HT-29 32.1 µM | SR 22 µM | HL-60 10.1 µM | DU-145 41.3 µM | SK-MEL-5 36.5 µM | SN12C 29.9 µM | RXF 393 31.7 µM | SNB-19 > 52.7 µM | K562 35.9 µM | A549 > 61.8 µM | KM12 37.7 µM

COc1cc2nncc(SCc3ccc(Cl)c(Cl)c3)c2cc1OC
inactive: OVCAR-5 98.4 µM | M19-MEL > 100 µM | DMS-273 > 100 µM | OVCAR-4 > 49.9 µM | MDA-N > 100 µM | SK-MEL-28 > 100 µM | HT-29 > 100 µM | SR > 100 µM | NCI/ADR-RES > 100 µM | HL-60 > 50.8 µM | DU-145 > 100 µM | SK-MEL-5 > 100 µM | SN12C > 100 µM | RXF 393 35.3 µM | SNB-19 45.9 µM | Hs-578T 80 µM | K562 > 94.8 µM | T47D 34 µM | A549 > 82.2 µM | KM12 > 62.7 µM
